Laboratory results from US4925651A, “Radiofluoro-tyrosine derivatives, the preparation and use thereof” (priority 1988, dated 1990).
Where two headings read alike, the source gives them in different places. Values belong to the molecule of their own block, whether it stands above or below them.

How the values were obtained:
[1] = Comparative uptake and incorporation of halogenated amino acids in mouse brain (40 min after i.v. injection); format: in vivo; settings: mouse, in vivo, iv
Description: (§1) Typically, 0.75 to 1.5 MBq of L-2-[^18 F]-fluorotyrosine in 50 to 100 μl of isotonic solution were injected into the tail vein of NMRI mice.
(§2) After a defined incubation time, the animals were sacrificed and the brains were removed within 20 s and frozen in liquid nitrogen. Parts of the frontal cortex were removed (about 20 mg), weighed, homogenized in distilled water by ultrasonic treatment and, after 10 s, trichloroacetic acid (TCA) was added (final concentration >10%). The protein fraction precipitated by TCA was spun down and washed 2× with TCA solution, and the radioactivity in the combined supernatants and in the protein pellet was measured.
(§3) Results of comparative experiments on the incorporation of halogenated amino acids in mouse brain (40 min after i.v. injection) are compiled in the table which follows: […]

[2] = test system: mouse brain; experiment: as above; format: in vivo
Description: as §1, §2, §3

[3] = test system: cerebral proteins (frontal cortex); experiment: Fraction of radioactivity incorporated in cerebral proteins (TCA precipitation, frontal cortex) after tail vein injection; format: in vivo, NMRI mice
Description: as §1, §2

[4] = test system: tissue; experiment: Distribution of radioactivity and metabolite analysis in tissue up to two hours after injection; format: in vivo
Excerpt: (§4) Appropriate analysis in the striatum, the area of the brain which is highly permeated by dopaminergic nerve cells, has also ruled out the formation of catecholamines from 2-fluorotyrosine. Thus 2-[^18 F]-fluorotyrosine is an ideal tracer for the quantification of the rate of protein synthesis using a three-compartment model, which is relatively easy to handle mathematically and as is used for 2-[^18 F]-fluorodeoxyglucose in PET studies. The uptake of >1.6% of the injected dose per gram of tissue (see table below) is, moreover, adequate for PET investigations.

[5] = test system: brain tissue; experiment: HPLC investigation of TCA supernatant for free 2-[^18 F]-fluorotyrosine in brain tissue; format: in vivo, NMRI mice; settings: for proportion of free (unmetabolized) 2-fluorotyrosine of the total tissue activity: brain tissue supernatant, HPLC; for recovery of the activity: free plus protein-incorporated
Description: as §1, §2
The supernatant was investigated by HPLC (for conditions, see Example 1) for the proportion of free 2-[^18 F]-fluorotyrosine. It emerged from this that the activity not incorporated in proteins was present almost entirely as unmetabolized 2-fluorotyrosine.

[6] = test system: striatum; experiment: Analysis for catecholamine formation in the striatum; format: in vivo
Excerpt: as §4

[7] = test system: mouse brain; settings: 40 min, footnote * Literature data; cited from earlier work
[8] = test system: cerebral protein synthesis; settings: Coenen et al., cited from earlier work
[9] = mouse brain, 40 min after i.v. injection, read-out: Uptake
[10] = mouse brain, 40 min after i.v. injection

Structure (SMILES): N[C@@H](Cc1ccc(O)cc1[18F])C(=O)O [2 - ^18 FTyr, 2-[^18 F]-fluorotyrosine]
tissue uptake at 40 min [1, 9]: 1.3 ± 0.005 %ID/g
tissue uptake at 40 min ([1]; refers to table, read-out: uptake of the injected dose per gram of tissue): > 1.6 %ID/g
cerebral incorporation rate (in words) ([2]; after 40 min): comparable to that for the natural amino acids methionine and phenylalanine
Incorporation [2, 10]: 62 ± 3 % of cerebral activity
fraction incorporated in cerebral proteins ([3]; 20 min after injection): 44±3%
fraction incorporated in cerebral proteins ([3]; 60 min after injection): 84%
incorporation in cerebral proteins (in words) ([3]; >1 h after the injection): almost quantitative
influence from redistributed labeled metabolites from the blood ([4]; in vivo): can be ruled out
distribution of radioactivity in tissue ([4]; up to two hours after injection): distributed only over the free fluorinated amino acid and the portion incorporated in protein
proportion of free (unmetabolized) 2-fluorotyrosine of the total tissue activity ([5]; 20 min): 51±3%
recovery of the activity ([5]; 20 min): 95±6%
proportion of free (unmetabolized) 2-fluorotyrosine of the total tissue activity ([5]; 60 min): 11±2%
recovery of the activity ([5]; 60 min): 95±4%
chemical form of the activity in brain tissue ([5]; HPLC of supernatant): present in brain tissue virtually only in two chemical forms
formation of catecholamines [6]: ruled out

tissue uptake at 40 min [1]: 2.4 ± 0.4 %ID/g
Incorporation ([2]; mouse, in vivo, iv): 15 ± 1 % of cerebral activity
Structure (SMILES): NC(Cc1ccccc1[75Br])C(=O)O (stereo not shown) [2 - ^75 BrPhe]

Structure (SMILES): N[C@@H](Cc1ccccc1)C(=O)O [^14 C-Phe, phenylalanine]
Incorporation [2, 10]: 63 ± 2 % of cerebral activity

Structure (SMILES): NC(Cc1ccc([75Br])cc1)C(=O)O (stereo not shown) [4 - ^75 BrPhe]
tissue uptake at 40 min [1, 9]: 2 ± 0.4 %ID/g
Incorporation [2, 10]: 17 ± 5 % of cerebral activity

tissue uptake at 40 min [1]: 0.2 ± 0.005 %ID/g
Incorporation ([2]; mouse, in vivo, iv): 13 ± 4 % of cerebral activity
Structure (SMILES): NC(Cc1ccc(O)c([123I])c1)C(=O)O (stereo not shown) [3 - ^123 ITyr]

tissue uptake at 40 min [1]: 0.8 ± 0.1 %ID/g
Incorporation ([2]; mouse, in vivo, iv): 18 ± 1 % of cerebral activity
Structure (SMILES): C[C@](N)(Cc1ccc(O)c([123I])c1)C(=O)O [3 - ^123 I-α-MeTyr, 3-iodo-α-methyltyrosine]

Structure (SMILES): N[C@@H](Cc1ccc(O)c(F)c1)C(=O)O [3 - ^18 FTyr, 3-fluorotyrosine]
tissue uptake at 40 min [1, 9]: 0.8 ± 0.005 %ID/g
Incorporation [2, 10]: 26 ± 1 % of cerebral activity

Incorporation ([2]; mouse, in vivo, iv): 57 ± 3 % of cerebral activity
Structure (SMILES): CSCC[C@H](N)C(=O)O [^14 C-Met, methionine]

tissue uptake at 40 min [1]: 2 ± 0.4 %ID/g
Incorporation ([2]; mouse, in vivo, iv): 11 ± 2 % of cerebral activity
Structure (SMILES): NC(Cc1ccccc1[18F])C(=O)O (stereo not shown) [2 - ^18 FPhe]

Structure (SMILES): CC(C)C[C@H](N)C(=O)O [^14 C-Leu, leucine]
Incorporation [7]: 85 ± 4 % of cerebral activity

tissue uptake at 40 min [1]: 1.5 ± 0.3 %ID/g
Incorporation ([2]; mouse, in vivo, iv): 20 ± 2 % of cerebral activity
Structure (SMILES): NC(Cc1ccc([18F])cc1)C(=O)O (stereo not shown) [4 - ^18 FPhe, p-[^18 F]-fluorophenylalanine]
incorporation rate in cerebral protein (in words) [8]: relatively low
radioactivity in cerebral tissue assigned to an unidentified metabolite pool ([8]; animal model): about 20%
